Measured values as given in patent US9169267B2, “Quaternary ammonium salts, method for preparation and applications thereof” (Uniwersytet Medyczny IM. Karola Marcinkowskiego, priority 2012, dated 2015).

What was measured:
Format in all cases: cell-based
[1] = system: Staphylocoocus aureus ATCC 6538; assay: Antimicrobial activity MIC/MBC test, Staphylocoocus aureus ATCC 6538; settings: read-out: MBC (minimum bactericidal concentration)
Description: (§1) The four reference strains were indications of the minimum inhibitory concentration (MIC) and minimum bactericidal concentration (MBC) tests conducted for two newly synthesized compounds of the new quaternary ammonium salts derivatives: 4-[2-(4-bromophenyl)-2-oxoethyl]tetrahydro[1,3]oxazolo[2,3-b][1,3]oxazol-4-ium bromide and 4-[2-(biphenyl-4-yl)-2-oxoethyl]tetrahydro[1,3]oxazolo[2,3-b][1,3]oxazol-4-ium bromide. The study was carried out on strains: Staphylocoocus aureus ATCC 6538, Escherichia coli ATCC 25922, Pseudomonas aeruginosa ATCC 6749, Candida albicans ATCC 10231,

[2] = system: Escherichia coli ATCC 25922; assay: Antimicrobial activity MIC/MBC test, Escherichia coli ATCC 25922; settings: ATCC25922, read-out: MBC (minimum bactericidal concentration)
Description: as §1

[3] = system: Pseudomonas aeruginosa ATCC 6749; assay: Antimicrobial activity MIC/MBC test, Pseudomonas aeruginosa ATCC 6749; settings: for MBC: ATCC6749, read-out: MBC (minimum bactericidal concentration); for MIC: ATCC6749, read-out: MIC (minimum inhibitory concentration)
Description: as §1

[4] = system: Candida albicans ATCC 10231; assay: Antimicrobial activity MIC/MBC test, Candida albicans ATCC 10231; settings: ATCC10231, read-out: MBC (minimum bactericidal concentration)
Description: as §1

Row | SMILES | MBC [1] [mg/mL] | MBC [2] [mg/mL] | MBC [3] [mg/mL] | MIC [3] [mg/mL] | MBC [4] [mg/mL]
1 | O=C(C[N+]12CCOC1OCC2)c1ccc(Br)cc1.[Br-] (stereo not shown) [4-[2-(4-bromophenyl)-2-oxoethyl]tetrahydro[1,3]oxazolo[2,3-b][1,3]oxazol-4-ium bromide] | 1.73 | 6.94 | 27.8 | 27.8 | 27.8
2 | O=C(C[N+]12CCOC1OCC2)c1ccc(-c2ccccc2)cc1.[Br-] (stereo not shown) [4-[2-(biphenyl-4-yl)-2-oxoethyl]tetrahydro[1,3]oxazolo[2,3-b][1,3]oxazol-4-ium bromide] | 0.43 | 3.47 | 55.5 | 13.9 | 6.94
